Laboratory results published in paper PMC12406203 (Journal of Medicinal Chemistry, 2025).

What was measured:
Experiment in all cases: KINOMEscan
Assay type in all cases: binding
[1] = target: T1, ULK2 (Homo sapiens, UniProt Q8IYT8)
T1 construct: purchased Eurofins DiscoverX, LLC; host or cells: E. coli BL21-derived host (T7 phage) or HEK-293
T1 sequence (Q8IYT8 1-1036): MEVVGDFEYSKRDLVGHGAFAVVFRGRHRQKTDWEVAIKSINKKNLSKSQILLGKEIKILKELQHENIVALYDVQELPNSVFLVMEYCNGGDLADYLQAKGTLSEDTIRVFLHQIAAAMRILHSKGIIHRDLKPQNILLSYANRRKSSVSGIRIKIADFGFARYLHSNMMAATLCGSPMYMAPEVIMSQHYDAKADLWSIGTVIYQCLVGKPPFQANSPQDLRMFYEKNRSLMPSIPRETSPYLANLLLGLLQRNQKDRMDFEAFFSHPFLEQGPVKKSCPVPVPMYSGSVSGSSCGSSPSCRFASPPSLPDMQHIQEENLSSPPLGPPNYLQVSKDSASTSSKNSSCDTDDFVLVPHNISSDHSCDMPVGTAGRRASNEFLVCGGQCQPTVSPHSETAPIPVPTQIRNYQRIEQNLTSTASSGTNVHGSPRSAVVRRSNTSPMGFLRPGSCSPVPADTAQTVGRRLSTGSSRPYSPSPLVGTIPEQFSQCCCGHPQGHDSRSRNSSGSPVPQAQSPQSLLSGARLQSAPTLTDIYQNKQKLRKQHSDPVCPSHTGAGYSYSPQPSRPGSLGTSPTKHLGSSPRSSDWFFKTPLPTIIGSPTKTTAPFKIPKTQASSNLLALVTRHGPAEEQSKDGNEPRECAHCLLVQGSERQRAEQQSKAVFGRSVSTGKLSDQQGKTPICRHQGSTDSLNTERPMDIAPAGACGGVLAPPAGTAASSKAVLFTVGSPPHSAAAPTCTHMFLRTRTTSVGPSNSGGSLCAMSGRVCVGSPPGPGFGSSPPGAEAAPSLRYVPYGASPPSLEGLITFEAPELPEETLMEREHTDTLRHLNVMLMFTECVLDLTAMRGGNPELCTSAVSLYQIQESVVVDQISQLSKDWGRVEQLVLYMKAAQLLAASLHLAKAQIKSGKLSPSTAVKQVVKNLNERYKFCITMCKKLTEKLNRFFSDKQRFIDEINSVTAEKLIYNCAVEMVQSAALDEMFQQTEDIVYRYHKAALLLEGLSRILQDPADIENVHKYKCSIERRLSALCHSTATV

[2] = target: T2, FLT3 (Homo sapiens, UniProt P36888)
T2 construct: purchased Eurofins DiscoverX, LLC; host or cells: E. coli (T7 phage) or HEK-293
T2 sequence (P36888 27-993): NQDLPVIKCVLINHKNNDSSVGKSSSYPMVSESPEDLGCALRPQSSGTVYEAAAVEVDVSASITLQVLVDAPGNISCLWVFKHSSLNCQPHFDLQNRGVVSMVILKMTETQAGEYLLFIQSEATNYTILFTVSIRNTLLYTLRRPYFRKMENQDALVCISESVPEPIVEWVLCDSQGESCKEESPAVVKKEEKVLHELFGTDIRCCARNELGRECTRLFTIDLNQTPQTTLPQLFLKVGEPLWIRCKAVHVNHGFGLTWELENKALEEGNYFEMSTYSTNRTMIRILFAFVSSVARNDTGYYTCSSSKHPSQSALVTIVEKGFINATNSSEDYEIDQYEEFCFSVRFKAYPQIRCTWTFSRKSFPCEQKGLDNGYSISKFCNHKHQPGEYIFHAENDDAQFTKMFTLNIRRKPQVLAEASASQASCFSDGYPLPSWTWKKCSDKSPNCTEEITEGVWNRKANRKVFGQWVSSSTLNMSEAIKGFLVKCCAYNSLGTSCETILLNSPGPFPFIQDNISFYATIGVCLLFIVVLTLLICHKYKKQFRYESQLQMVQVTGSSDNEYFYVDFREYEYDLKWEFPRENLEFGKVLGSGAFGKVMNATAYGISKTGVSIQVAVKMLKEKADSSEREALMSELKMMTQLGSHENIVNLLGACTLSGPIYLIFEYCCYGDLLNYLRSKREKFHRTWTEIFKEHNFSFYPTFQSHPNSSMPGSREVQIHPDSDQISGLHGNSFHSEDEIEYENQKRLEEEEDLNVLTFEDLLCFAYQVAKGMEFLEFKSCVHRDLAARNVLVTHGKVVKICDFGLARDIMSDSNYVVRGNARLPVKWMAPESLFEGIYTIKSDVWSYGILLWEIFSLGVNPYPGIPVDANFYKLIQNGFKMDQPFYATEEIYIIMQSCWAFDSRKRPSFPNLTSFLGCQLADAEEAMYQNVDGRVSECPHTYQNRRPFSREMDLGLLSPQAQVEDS

[3] = target: T3, ABL1-phosphorylated (Homo sapiens, UniProt P00519)
T3 construct: purchased Eurofins DiscoverX, LLC; host or cells: E. coli BL21-derived (T7 phage) or HEK-293

[4] = target: T4, JAK3(JH1domain-catalytic) (Homo sapiens, UniProt P52333)
T4 construct: JAK3(JH1domain-; purchased Eurofins DiscoverX, LLC; host or cells: E. coli (T7 phage) or HEK-293

[5] = target: T5, EGFR (Homo sapiens, UniProt P00533)
T5 construct: purchased Eurofins DiscoverX, LLC; host or cells: E. coli (T7 phage) or HEK-293
T5 sequence (P00533 25-1210): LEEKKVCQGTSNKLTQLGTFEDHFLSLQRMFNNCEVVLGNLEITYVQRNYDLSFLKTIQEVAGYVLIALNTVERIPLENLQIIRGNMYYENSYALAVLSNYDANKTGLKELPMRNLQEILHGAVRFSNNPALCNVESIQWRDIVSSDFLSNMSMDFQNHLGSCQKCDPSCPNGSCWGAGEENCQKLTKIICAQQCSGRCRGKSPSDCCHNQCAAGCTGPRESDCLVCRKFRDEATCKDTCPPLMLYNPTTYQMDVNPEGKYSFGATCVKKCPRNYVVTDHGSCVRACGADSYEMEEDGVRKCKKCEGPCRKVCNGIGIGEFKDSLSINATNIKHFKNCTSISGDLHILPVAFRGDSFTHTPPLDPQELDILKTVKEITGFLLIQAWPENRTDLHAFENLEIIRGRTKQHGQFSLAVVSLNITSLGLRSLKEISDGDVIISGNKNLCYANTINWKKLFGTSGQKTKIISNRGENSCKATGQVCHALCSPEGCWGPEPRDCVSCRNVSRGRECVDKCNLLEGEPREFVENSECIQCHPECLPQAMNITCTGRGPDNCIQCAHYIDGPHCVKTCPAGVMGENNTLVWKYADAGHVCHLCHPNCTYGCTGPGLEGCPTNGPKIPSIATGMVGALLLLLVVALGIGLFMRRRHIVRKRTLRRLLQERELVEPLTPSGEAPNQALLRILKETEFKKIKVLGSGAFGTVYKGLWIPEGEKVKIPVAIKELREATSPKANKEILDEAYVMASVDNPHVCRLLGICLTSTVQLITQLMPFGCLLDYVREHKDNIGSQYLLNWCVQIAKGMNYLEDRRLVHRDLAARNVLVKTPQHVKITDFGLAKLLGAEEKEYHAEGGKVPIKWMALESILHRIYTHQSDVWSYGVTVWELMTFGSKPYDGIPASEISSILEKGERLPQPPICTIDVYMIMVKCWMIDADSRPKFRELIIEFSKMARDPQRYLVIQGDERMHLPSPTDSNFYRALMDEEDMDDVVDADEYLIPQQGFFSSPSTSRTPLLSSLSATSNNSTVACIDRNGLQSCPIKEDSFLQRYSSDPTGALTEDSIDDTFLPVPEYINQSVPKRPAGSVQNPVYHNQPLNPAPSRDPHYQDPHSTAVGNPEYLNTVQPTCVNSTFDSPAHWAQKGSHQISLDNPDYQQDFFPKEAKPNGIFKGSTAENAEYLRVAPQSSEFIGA

T4 sequence (P52333 822-1111 limits assumed): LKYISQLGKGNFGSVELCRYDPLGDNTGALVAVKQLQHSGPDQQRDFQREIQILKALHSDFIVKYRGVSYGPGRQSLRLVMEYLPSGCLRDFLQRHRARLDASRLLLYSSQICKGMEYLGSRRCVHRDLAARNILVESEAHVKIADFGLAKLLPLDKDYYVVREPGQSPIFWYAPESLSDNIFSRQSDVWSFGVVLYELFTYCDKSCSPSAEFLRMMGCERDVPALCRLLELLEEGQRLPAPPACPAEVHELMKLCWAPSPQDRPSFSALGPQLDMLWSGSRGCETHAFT
T3 sequence (P00519 whole entry): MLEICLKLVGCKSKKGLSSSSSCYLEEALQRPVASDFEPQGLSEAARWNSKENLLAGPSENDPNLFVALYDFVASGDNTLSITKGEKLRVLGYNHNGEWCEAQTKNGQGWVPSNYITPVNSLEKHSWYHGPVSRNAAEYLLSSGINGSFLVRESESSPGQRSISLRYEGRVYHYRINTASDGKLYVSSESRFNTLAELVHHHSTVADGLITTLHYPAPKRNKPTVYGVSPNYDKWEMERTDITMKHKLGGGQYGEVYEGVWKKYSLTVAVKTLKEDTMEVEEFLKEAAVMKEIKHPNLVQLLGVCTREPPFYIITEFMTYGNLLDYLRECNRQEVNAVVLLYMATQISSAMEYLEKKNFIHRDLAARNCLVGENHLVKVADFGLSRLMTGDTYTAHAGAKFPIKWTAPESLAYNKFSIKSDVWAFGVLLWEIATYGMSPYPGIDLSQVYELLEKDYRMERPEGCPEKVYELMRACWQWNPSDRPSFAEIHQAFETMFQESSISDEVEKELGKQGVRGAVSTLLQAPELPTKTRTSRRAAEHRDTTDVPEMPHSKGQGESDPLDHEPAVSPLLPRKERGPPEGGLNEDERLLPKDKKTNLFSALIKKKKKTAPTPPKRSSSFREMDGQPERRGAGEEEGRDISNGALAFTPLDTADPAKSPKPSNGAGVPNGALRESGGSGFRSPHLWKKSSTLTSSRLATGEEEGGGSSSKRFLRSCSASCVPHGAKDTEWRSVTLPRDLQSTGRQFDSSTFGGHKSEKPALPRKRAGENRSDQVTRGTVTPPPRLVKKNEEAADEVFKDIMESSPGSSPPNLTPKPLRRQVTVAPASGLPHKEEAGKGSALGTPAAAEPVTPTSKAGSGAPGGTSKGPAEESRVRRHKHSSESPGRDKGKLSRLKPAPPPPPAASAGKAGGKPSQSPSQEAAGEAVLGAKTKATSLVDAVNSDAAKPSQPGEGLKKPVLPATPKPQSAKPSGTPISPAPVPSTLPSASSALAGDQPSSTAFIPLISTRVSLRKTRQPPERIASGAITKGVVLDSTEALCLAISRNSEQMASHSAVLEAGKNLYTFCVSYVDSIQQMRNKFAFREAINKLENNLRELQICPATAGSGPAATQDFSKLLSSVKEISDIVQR

Question: What does the source list for `CN(C)CCNC(=O)c1cc2c(cnn2CC2CCCCC2)cc1Cc1ccc(F)cc1F` [Compound 95, 1-(Cyclohexylmethyl)-5-(2,4-difluorobenzyl)-N-(2-(dimethylamino)ethyl)-1H-indazole-6-carboxamide]?
Answer: RA @ 1000nM [1]: 77%; RA @ 10000nM [1]: 75%; RA @ 1000nM [2]: 100%; RA @ 10000nM [2]: 100%; RA @ 1000nM [3]: 81%; RA @ 10000nM [3]: 85%; RA @ 1000nM [4]: 100%; RA @ 10000nM [4]: 100%; RA @ 1000nM [5]: 100%; RA @ 10000nM [5]: 100%

Question: With `CC(C)Cn1ncc2cc(Cc3ccc(F)cc3F)c(C(=O)NCCN(C)C)cc21` [Compound 94, 5-(2,4-Difluorobenzyl)-N-(2-(dimethylamino)ethyl)-1-isobutyl-1H-indazole-6-carboxamide] as the compound, how does the “RA @ 1000nM” value [1] read?
Answer: 71%

Question: And the “RA @ 10000nM” value [1]?
Answer: 88%

Question: And the “RA @ 1000nM” value [2]?
Answer: 100%

Question: And the “RA @ 10000nM” value [2]?
Answer: 90%

Question: What about the “RA @ 1000nM” value [3] of the same compound?
Answer: 79%

Question: What about the “RA @ 10000nM” value [3] of the same compound?
Answer: 53%

Question: What about the “RA @ 1000nM” value [4] of the same compound?
Answer: 100%

Question: What about the “RA @ 10000nM” value [4] of the same compound?
Answer: 100%

Question: And the “RA @ 1000nM” value [5]?
Answer: 98%

Question: What about the “RA @ 10000nM” value [5] of the same compound?
Answer: 69%
